In article PMC10341573, “Design, Synthesis, and Biological Evaluation of Novel Quinazolin-4(3H)-One-Based Histone Deacetylase 6 (HDAC6) Inhibitors for Anticancer Activity” (International Journal of Molecular Sciences, 2023):
Values joined by “and” are separate entries in the source; they are usually repeats but may differ in a detail not shown here. Equal entries are not always repeated. Where two headings read alike, the source gives them in different places.

Key:
[1] = biological target: T1, HDAC6 (Homo sapiens, UniProt Q9UBN7); test: HDAC enzyme activity assay (fluorogenic, Boc-Lys(acetyl)-AMC), HDAC6; assay type: biochemical; conditions: for IC50: class IIb HDAC6, mean ± SD, triplicate
T1 construct: Full-length recombinant HDAC6 was purchased from BPS Bioscience; purchased BPS Bioscience
T1 sequence (Q9UBN7 1-1215): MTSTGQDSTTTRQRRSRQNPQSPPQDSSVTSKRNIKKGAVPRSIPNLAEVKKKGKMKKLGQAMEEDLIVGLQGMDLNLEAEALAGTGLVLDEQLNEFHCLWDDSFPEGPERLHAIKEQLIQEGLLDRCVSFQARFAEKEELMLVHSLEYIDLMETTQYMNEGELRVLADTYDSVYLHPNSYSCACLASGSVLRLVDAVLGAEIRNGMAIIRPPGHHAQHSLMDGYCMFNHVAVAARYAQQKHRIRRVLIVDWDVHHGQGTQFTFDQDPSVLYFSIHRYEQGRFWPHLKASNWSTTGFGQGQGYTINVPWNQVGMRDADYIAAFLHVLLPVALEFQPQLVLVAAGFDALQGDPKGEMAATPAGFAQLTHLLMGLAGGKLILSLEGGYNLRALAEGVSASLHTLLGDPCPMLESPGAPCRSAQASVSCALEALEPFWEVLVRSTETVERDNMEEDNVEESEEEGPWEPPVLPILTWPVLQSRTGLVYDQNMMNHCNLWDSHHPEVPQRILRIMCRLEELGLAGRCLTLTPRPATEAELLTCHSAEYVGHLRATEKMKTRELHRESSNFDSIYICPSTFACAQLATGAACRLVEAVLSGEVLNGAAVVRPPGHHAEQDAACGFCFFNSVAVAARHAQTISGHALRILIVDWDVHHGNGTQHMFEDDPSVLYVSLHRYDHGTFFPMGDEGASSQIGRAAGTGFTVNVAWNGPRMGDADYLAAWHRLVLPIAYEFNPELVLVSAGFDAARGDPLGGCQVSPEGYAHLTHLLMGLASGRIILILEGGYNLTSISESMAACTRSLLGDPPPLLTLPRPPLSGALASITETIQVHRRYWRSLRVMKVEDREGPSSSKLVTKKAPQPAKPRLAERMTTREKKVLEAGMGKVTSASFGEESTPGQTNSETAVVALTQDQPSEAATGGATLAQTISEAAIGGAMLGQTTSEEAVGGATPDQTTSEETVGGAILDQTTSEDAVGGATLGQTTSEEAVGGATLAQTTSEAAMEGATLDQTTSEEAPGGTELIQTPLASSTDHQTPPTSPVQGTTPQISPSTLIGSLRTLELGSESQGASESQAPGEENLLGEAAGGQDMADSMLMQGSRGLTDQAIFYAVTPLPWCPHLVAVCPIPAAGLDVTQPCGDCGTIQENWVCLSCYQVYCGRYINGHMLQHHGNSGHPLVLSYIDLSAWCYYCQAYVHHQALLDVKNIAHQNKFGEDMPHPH

[2] = tested on: B16; test: MTT cell proliferation assay, B16; assay type: cell-based, murine; conditions: MTT, 72 h, mean ± SD, triplicate, read-out: IC50 ± SD B16
[3] = biological target: T2, HDAC8 (Homo sapiens, UniProt Q9BY41); test: HDAC enzyme activity assay (fluorogenic, Boc-Lys(trifluoroacetyl)-AMC), HDAC8; assay type: biochemical; conditions: class I HDAC8; mean ± SD, triplicate
T2 construct: codon-optimized full-length HDAC8; made in house; host or cells: E. coli BL21(DE3), pET14b vector
T2 sequence (Q9BY41 1-377): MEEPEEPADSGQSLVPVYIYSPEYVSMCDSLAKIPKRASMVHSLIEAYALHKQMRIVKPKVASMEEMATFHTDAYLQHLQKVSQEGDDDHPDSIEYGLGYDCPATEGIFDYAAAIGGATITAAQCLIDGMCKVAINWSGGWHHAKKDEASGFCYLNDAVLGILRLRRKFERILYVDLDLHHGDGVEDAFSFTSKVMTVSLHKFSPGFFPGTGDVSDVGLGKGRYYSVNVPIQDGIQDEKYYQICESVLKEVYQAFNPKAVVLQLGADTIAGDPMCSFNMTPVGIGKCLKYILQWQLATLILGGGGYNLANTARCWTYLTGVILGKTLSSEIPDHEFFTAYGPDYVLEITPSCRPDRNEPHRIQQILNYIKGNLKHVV

[4] = tested on: HEK 293; test: MTT cell proliferation assay, HEK 293; assay type: cell-based, human; conditions: MTT, 72 h, mean ± SD, triplicate, read-out: IC50 ± SD HEK 293
[5] = tested on: HCT116; test: MTT cell proliferation assay, HCT116; assay type: cell-based, human; conditions: MTT, 72 h, mean ± SD, triplicate, read-out: IC50 ± SD HCT116
[6] = tested on: MCF7; test: MTT cell proliferation assay, MCF7; assay type: cell-based, human; conditions: MTT, 72 h, mean ± SD, triplicate, read-out: IC50 ± SD MCF7
[7] = biological target: T3, HDAC4 (Homo sapiens, UniProt P56524); test: HDAC enzyme activity assay (fluorogenic, Boc-Lys(trifluoroacetyl)-AMC), HDAC4; assay type: biochemical; conditions: class IIa HDAC4; mean ± SD, triplicate
T3 construct: catalytic domain of HDAC4 (T648-T1057, full length: UniProt P56524); made in house; host or cells: E. coli BL21(DE3), pET14b vector
T3 sequence (P56524 648-1057): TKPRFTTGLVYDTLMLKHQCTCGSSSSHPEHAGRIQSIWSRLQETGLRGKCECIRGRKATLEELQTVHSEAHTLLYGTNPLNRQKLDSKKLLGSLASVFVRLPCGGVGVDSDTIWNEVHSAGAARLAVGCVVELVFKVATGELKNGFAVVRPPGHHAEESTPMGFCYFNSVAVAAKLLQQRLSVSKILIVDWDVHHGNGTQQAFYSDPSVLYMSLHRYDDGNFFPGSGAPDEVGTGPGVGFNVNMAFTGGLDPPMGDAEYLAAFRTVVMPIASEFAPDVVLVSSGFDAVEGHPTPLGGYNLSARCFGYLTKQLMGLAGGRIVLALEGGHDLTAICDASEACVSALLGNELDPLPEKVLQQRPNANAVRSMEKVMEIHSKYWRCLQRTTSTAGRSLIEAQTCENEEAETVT

| IC50 [1] | IC50 ([2]; Mus musculus, B16) | IC50 [3] | IC50 ([5]; Homo sapiens, HCT-116) | IC50 ([6]; Homo sapiens, MCF7, 72 h) | IC50 [7] | melting point | SMILES | IC50 ([4]; Homo sapiens, HEK293) | selectivity against class IIa HDAC4 ([1]; HDAC6 versus HDAC4) | selectivity against class I HDAC8 ([1]; HDAC6 versus HDAC8) | IC50 [2] | IC50 [4] | IC50 [5] | IC50 [6] |
| --- | --- | --- | --- | --- | --- | --- | --- | --- | --- | --- | --- | --- | --- | --- |
| 5.6 ± 0.6 µM | 48.8 ± 9.68 µM | 24 µM | 46.2 ± 20 µM | 26.5 ± 3.5 µM | 4.5 ± 1.2 µM |  | O=C(NO)c1ccc(CSc2nc3ccccc3c(=O)n2-c2ccc(Cl)cc2)cc1 [Compound 5a, 4-(((3-(4-chlorophenyl)-4-oxo-3,4-dihydroquinazolin-2-yl)thio)methyl)-N-hydroxybenzamide] | 30.9 µM |  |  |  |  |  |  |
| 0.15 ± 0.01 µM | 28.9 ± 2.32 µM | 1.4 ± 0.3 µM | 17.6 ± 1.77 µM | 24.3 ± 5.97 µM | 2.3 ± 1.1 µM |  | O=C(NO)c1ccc(CSc2nc3ccccc3c(=O)n2-c2ccccc2)cc1 [Compound 5b, N-hydroxy-4-(((4-oxo-3-phenyl-3,4-dihydroquinazolin-2-yl)thio)methyl)benzamide] | 26.4 ± 5 µM |  |  |  |  |  |  |
| 0.28 ± 0.06 µM | 29.8 ± 8.72 µM | 2.3 ± 0.8 µM | 34.5 ± 10.4 µM | 21.7 ± 2.47 µM | 0.64 ± 0.37 µM | 150 to 157 °C and 155 to 157 °C | CCc1ccc(-n2c(SCc3ccc(C(=O)NO)cc3)nc3ccccc3c2=O)cc1 [Compound 5d, 4-(((3-(4-ethylphenyl)-4-oxo-3,4-dihydroquinazolin-2-yl)thio)methyl)-N-hydroxybenzamide] | > 50 µM |  |  |  |  |  |  |
| 1.1 ± 0.1 µM | 26.1 ± 1.27 µM | 3 ± 0.5 µM | 46.4 ± 17.8 µM | 44.6 ± 1.07 µM | 1.1 ± 0.4 µM |  | O=C(NO)c1ccc(CSc2nc3ccccc3c(=O)n2-c2ccc(Br)cc2)cc1 [Compound 5e, 4-(((3-(4-bromophenyl)-4-oxo-3,4-dihydroquinazolin-2-yl)thio)methyl)-N-hydroxybenzamide] | > 50 µM |  |  |  |  |  |  |
| 0.49 ± 0.12 µM | > 50 µM | 3 ± 1 µM | > 50 µM | > 50 µM | 1.6 ± 0.9 µM | 138 to 144 °C and 142 to 144 °C | Cc1ccc(-n2c(SCc3ccc(C(=O)NO)cc3)nc3ccccc3c2=O)cc1C [Compound 5f, 4-(((3-(3,4-dimethylphenyl)-4-oxo-3,4-dihydroquinazolin-2-yl)thio)methyl)-N-hydroxybenzamide] | > 50 µM |  |  |  |  |  |  |
| 0.26 ± 0.02 µM | 23 ± 13.7 µM | 0.79 ± 0.16 µM | 30.7 ± 15.8 µM | 25.3 ± 3.21 µM | 0.87 ± 0.31 µM |  | Cc1cccc(-n2c(SCc3ccc(C(=O)NO)cc3)nc3ccccc3c2=O)c1 [Compound 5g, N-hydroxy-4-(((4-oxo-3-(m-tolyl)-3,4-dihydroquinazolin-2-yl)thio)methyl)benzamide] | > 50 µM |  |  |  |  |  |  |
| 0.17 ± 0.03 µM | > 50 µM | 1.1 ± 0.3 µM | > 50 µM | > 50 µM | 1.4 ± 0.5 µM |  | O=C(NO)c1ccc(CSc2nc3ccccc3c(=O)n2-c2cccc(Cl)c2)cc1 [Compound 5h, 4-(((3-(3-chlorophenyl)-4-oxo-3,4-dihydroquinazolin-2-yl)thio)methyl)-N-hydroxybenzamide] | > 50 µM |  |  |  |  |  |  |
| 0.36 ± 0.04 µM | > 50 µM | 2.9 ± 0.6 µM | 40.4 ± 16 µM | > 50 µM | 8.4 ± 1.2 µM |  | O=C(NO)c1ccc(CSc2nc3ccccc3c(=O)n2-c2ccccc2F)cc1 [Compound 5i, 4-(((3-(2-fluorophenyl)-4-oxo-3,4-dihydroquinazolin-2-yl)thio)methyl)-N-hydroxybenzamide] | > 50 µM |  |  |  |  |  |  |
| 0.65 ± 0.07 µM | > 50 µM | 4 ± 1 µM | > 50 µM | > 50 µM | 4.3 ± 1.2 µM |  | O=C(NO)c1ccc(CSc2nc3cc(Cl)ccc3c(=O)n2-c2ccccc2)cc1 [Compound 5j, 4-(((7-chloro-4-oxo-3-phenyl-3,4-dihydroquinazolin-2-yl)thio)methyl)-N-hydroxybenzamide] | > 50 µM |  |  |  |  |  |  |
| 0.21 ± 0.05 µM | > 50 µM | 3.3 ± 0.9 µM | > 50 µM | > 50 µM | 0.56 ± 0.24 µM |  | O=C(NO)c1ccc(CSc2nc3cc(Cl)ccc3c(=O)n2-c2ccccc2F)cc1 [Compound 5m, 4-(((7-chloro-3-(2-fluorophenyl)-4-oxo-3,4-dihydroquinazolin-2-yl)thio)methyl)-N-hydroxybenzamide] | > 50 µM |  |  |  |  |  |  |
| 0.22 ± 0.05 µM | > 50 µM | 2.7 ± 0.6 µM | > 50 µM | > 50 µM | 0.4 ± 0.14 µM |  | Cc1cccc2nc(SCc3ccc(C(=O)NO)cc3)n(-c3ccccc3)c(=O)c12 [Compound 5p, N-hydroxy-4-(((5-methyl-4-oxo-3-phenyl-3,4-dihydroquinazolin-2-yl)thio)methyl)benzamide] | > 50 µM |  |  |  |  |  |  |
| 0.86 ± 0.06 µM | > 50 µM | 5.9 ± 0.8 µM | > 50 µM | > 50 µM | 0.91 ± 0.33 µM |  | Cc1cccc2nc(SCc3ccc(C(=O)NO)cc3)n(-c3ccc(Cl)cc3)c(=O)c12 [Compound 5s, 4-(((3-(4-chlorophenyl)-5-methyl-4-oxo-3,4-dihydroquinazolin-2-yl)thio)methyl)-N-hydroxybenzamide] | > 50 µM |  |  |  |  |  |  |
|  | > 50 µM |  | > 50 µM | > 50 µM |  |  | C#Cc1cccc(Nc2ncnc3cc(OCCOC)c(OCCOC)cc23)c1 [Erlotinib, reference compound] | > 50 µM |  |  |  |  |  |  |
|  |  |  |  |  |  |  | CC(/C=C/C(=O)NO)=C\[C@@H](C)C(=O)c1ccc(N(C)C)cc1 [Trichostatin A, reference compound] |  |  |  | 28.9 ± 13 µM | 15.3 ± 1.45 µM | 18.3 ± 5.63 µM | 42.5 ± 11.3 µM |
|  | 1.99 ± 0.25 µM |  | 1.34 ± 0.04 µM | 12.7 ± 4.68 µM |  |  | CN1CCc2c(c3ccccc3n2Cc2ccc(C(=O)NO)cc2)C1 [Tubastatin, reference compound] | 1.26 ± 0.29 µM |  |  |  |  |  |  |

| SMILES | IC50 [1] | IC50 ([2]; Mus musculus, B16) | IC50 [3] | IC50 ([5]; Homo sapiens, HCT-116) | IC50 ([6]; Homo sapiens, MCF7, 72 h) | IC50 [7] | melting point | IC50 ([4]; Homo sapiens, HEK293) | selectivity against class IIa HDAC4 ([1]; HDAC6 versus HDAC4) | selectivity against class I HDAC8 ([1]; HDAC6 versus HDAC8) | IC50 [2] | IC50 [4] | IC50 [5] | IC50 [6] |
| --- | --- | --- | --- | --- | --- | --- | --- | --- | --- | --- | --- | --- | --- | --- |
| Cc1ccc(-n2c(SCc3ccc(C(=O)NO)cc3)nc3cc(Cl)ccc3c2=O)cc1C [Compound 5o, 4-(((7-chloro-3-(3,4-dimethylphenyl)-4-oxo-3,4-dihydroquinazolin-2-yl)thio)methyl)-N-hydroxybenzamide] | 0.4 µM and 0.39 µM | > 50 µM | 14 µM | > 50 µM | > 50 µM | 7.1 ± 1.1 µM |  | > 50 µM | 18 fold | 36 fold |  |  |  |  |
